Experiments:
[1] = test system: patient-matched human bronchial epithelial cells/human non-small lung cancer cells (HBEC30KT/HCC4017, HBEC34KT/HCC4018); assay: Cancer vs normal selectivity in patient-matched pairs (MTS viability); assay type: cell-based
Procedure: (§1) All human cancer cell lines were maintained in RPMI media supplemented with 5% (lung and breast cancer cells) or 10% (melanoma cells) fetal bovine serum. […] Human mammary epithelial cells immortalised with telomerase were maintained in complete MEGM media from Cambrex (East Rutherford, NJ, USA).
(§2) Absorbance at 490 and 650 nm (reference wavelength) was measured by a Spectra Max (Molecular Devices, Sunnyvale, CA, USA) or a FlouroStar Omega (BMG Biosciences, Ortenberg, Germany) plate reader. Data were normalised to the untreated controls (100% viability). Each cell line was tested in 1–5 independent assays, each containing 4–8 replicates. IC50 values were calculated using DIVISA, a high-throughput software, developed in-house (manuscript in preparation), for storing and analysing drug sensitivity assays. Dose–response curves were plotted using a non-linear regression model and IC50s were determined from the fitted curves.

[2] = test system: MEL270 uveal melanoma cells; assay: MTS cell viability, MEL270; assay type: cell-based, human; details: Homo sapiens, 96 h, 4 days
Procedure: as §1, §2

[3] = test system: HCC4018 lung cancer cells; assay: MTS cell viability, HCC4018; assay type: cell-based, human; details: Homo sapiens, 96 h; HCC4018, MTS, 4 days
Procedure: as §1, §2

[4] = test system: OCM3 uveal melanoma cells; assay: MTS cell viability, OCM3; assay type: cell-based, human; details: Homo sapiens, 96 h, 4 days
Procedure: as §1, §2

[5] = test system: OCM1 uveal melanoma cells; assay: MTS cell viability, OCM1; assay type: cell-based, human; details: Homo sapiens, 96 h, 4 days
Procedure: as §1, §2

[6] = test system: HBEC30KT human bronchial epithelial cells; assay: MTS cell viability, HBEC30KT; assay type: cell-based; details: Homo sapiens, Epithelial cell, 96 h, HBEC30KT, 4 days
Procedure: as §1, §2

[7] = test system: LOXIMVI melanoma cells; assay: MTS cell viability, LOXIMVI; assay type: cell-based, human; details: LOXIMVI, 4 days
Procedure: as §1, §2

[8] = test system: SKMEL2 melanoma cells; assay: MTS cell viability, SKMEL2; assay type: cell-based, human; details: SK-MEL2, MTS, 4 days
Procedure: as §1, §2

[9] = test system: OMM2.3 uveal melanoma cells; assay: MTS cell viability, OMM2.3; assay type: cell-based, human; details: Homo sapiens, 96 h, 4 days
Procedure: as §1, §2

[10] = test system: HBEC34KT human bronchial epithelial cells; assay: MTS cell viability, HBEC34KT; assay type: cell-based; details: Homo sapiens, Epithelial cell, 96 h, HBEC34KT, 4 days
Procedure: as §1, §2

[11] = test system: Melanocytes; assay: MTS cell viability, primary melanocytes; assay type: cell-based, human; details: Homo sapiens, Melanocyte, 96 h, 4 days
Procedure: as §1, §2

[12] = test system: HCC4017 lung cancer cells; assay: MTS cell viability, HCC4017; assay type: cell-based, human; details: Homo sapiens, 96 h; HCC4017, MTS, 4 days
Procedure: as §1, §2

[13] = test system: H1437 cells; assay: MTS cell viability, H1437; assay type: cell-based, human; details: cell viability, Supplementary Figure 2D
Procedure: as §1, §2

[14] = test system: HCC15 cells; assay: MTS cell viability, HCC15; assay type: cell-based, human; details: cell viability, Supplementary Figure 2C
Procedure: as §1, §2

[15] = test system: H2073 cells; assay: MTS cell viability, H2073; assay type: cell-based, human; details: H2073 cells, verapamil plus depsipeptide
Procedure: as §1, §2

[16] = test system: H1993 cells; assay: MTS cell viability, H1993; assay type: cell-based, human; details: H1993 cells, verapamil plus depsipeptide
Procedure: as §1, §2

**Q.** Which results are given for `CCC(=O)CCCCC[C@@H]1NC(=O)[C@H]2CCCCN2C(=O)[C@H]([C@@H](C)CC)NC(=O)[C@H](Cc2cn(OC)c3ccccc23)NC1=O` [Apicidin, apicidin]?
**A.** selectivity for cancer vs normal within a matched pair ([1]; one matched lung cancer/HBEC pair): no selectivity; selectivity for cancer vs normal within a matched pair ([1]; second pair of lines): ~25 fold; IC50 [2]: 650 nM; IC50 [3]: 30 nM; IC50 [4]: 4000 nM; IC50 [5]: 700 nM; IC50 [6]: 90 nM; sensitivity (position in drug sensitivity profile of melanoma panel) [7]: sensitive; sensitivity (position in drug sensitivity profile of melanoma panel) [8]: on the sensitive side; IC50 [9]: 400 nM; IC50 [10]: 790 nM; IC50 [11]: 200 nM; IC50 [12]: 120 nM

**Q.** How did the “relative potency against H1437 vs HCC15 cells” value [13] turn out when `Nc1ccccc1NC(=O)c1ccc(CNC(=O)OCc2cccnc2)cc1` [MS-275] was run?
**A.** more potent against H1437 cells than HCC15 cells

**Q.** With `O=C(CCCCCN1C(=O)c2cccc3cccc(c23)C1=O)NO` [Scriptaid] as the compound, how does the “relative sensitivity of HCC15 compared with H1437 cells” value [14] read?
**A.** more sensitive

**Q.** `COc1ccc(CCN(C)CCCC(C#N)(c2ccc(OC)c(OC)c2)C(C)C)cc1OC` (centres unmarked) [verapamil] was tested. Which “restoration of sensitivity to depsipeptide by MDR1 inhibition” value [15] did it give?
**A.** partly re-sensitised

**Q.** And the “restoration of sensitivity to depsipeptide by MDR1 inhibition” value [16]?
**A.** not affecting

Reference: paper PMC3251870 (British Journal of Cancer, 2011)
